Experimental data: patent publication US20090054392A1, “NAPHTHYLPYRIMIDINE, NAPHTHYLPYRAZINE AND NAPHTHYLPYRIDAZINE ANALOGS AND THEIR USE AS AGONISTS OF THE WNT-BETA-CATENIN CELLULAR MESSAGING SYSTEM” (Wyeth, priority 2007, published 2009)
One block for each compound: values may come before it.

System: Dkk1-LRP5-TCF-Luciferase
Assay: Functional Dkk1-LRP5-TCF-Luciferase Assay in U2OS Cells
Settings: for fold induction at 2 µM / fold induction at 20 µM / EC50: Homo sapiens, U2OS; for fold induction at 2 µM: read-out: B = TCF ACTIVITY/DMSO CONTROL Fold induction @ 2.0 uM, 2.0 uM compound; for fold induction at 20 µM: read-out: C = TCF ACTIVITY/DMSO CONTROL Fold induction @ 20.0 uM, 20.0 uM compound; for A = MAX FOLD Induction/DMSO CONTROL: maximum fold induction over DMSO control

SMILES: CC(C)NC(=O)N[C@H]1CCN(c2nccc(-c3ccc4ccccc4c3)n2)C1 [N-isopropyl-N′-{(3S)-1-[4-(2-naphthyl)pyrimidin-2-yl]pyrrolidin-3-yl}urea]
- fold induction at 2 µM: 1.12
- fold induction at 20 µM: 0.79

SMILES: CNC(=O)[C@H]1CCCN1c1nccc(-c2ccc3ccccc3c2)n1 [N-methyl-1-[4-(2-naphthyl)pyrimidin-2-yl]-D-prolinamide]
- fold induction at 2 µM: 1.13
- fold induction at 20 µM: 1.32

- A = MAX FOLD Induction/DMSO CONTROL: 2.840 fold
SMILES: CNCC1CCN(c2nccc(-c3ccc4ccccc4c3)n2)CC1 [N-methyl-1-{1-[4-(2-naphthyl)pyrimidin-2-yl]piperidin-4-yl}methanamine]
- fold induction at 2 µM: 1.49
- fold induction at 20 µM: 0.01

- A = MAX FOLD Induction/DMSO CONTROL: 1.030 fold
SMILES: CNC[C@H]1CCN(c2nccc(-c3ccc4ccccc4c3)n2)C1 [N-methyl-1-{(3R)-1-[4-(2-naphthyl)pyrimidin-2-yl]pyrrolidin-3-yl}methanamine]
- fold induction at 2 µM: 2.76
- fold induction at 20 µM: 0.01

- EC50: 2350 nM
- A = MAX FOLD Induction/DMSO CONTROL: 4.773 fold
SMILES: CNC[C@@H]1CCN(c2nccc(-c3ccc4ccccc4c3)n2)C1 [N-methyl-1-{(3S)-1-[4-(2-naphthyl)pyrimidin-2-yl]pyrrolidin-3-yl}methanamine]
- fold induction at 2 µM: 2.74
- fold induction at 20 µM: 0.503

SMILES: CCCN1CCC(N(C)c2nccc(-c3ccc4ccccc4c3)n2)CC1 [N-methyl-4-(2-naphthyl)-N-(1-propylpiperidin-4-yl)pyrimidin-2-amine]
- fold induction at 2 µM: 1.74

SMILES: CN(c1nccc(-c2ccc3ccccc3c2)n1)C1CCN(c2ncccn2)CC1 [N-methyl-4-(2-naphthyl)-N-(1-pyrimidin-2-ylpiperidin-4-yl)pyrimidin-2-amine]
- fold induction at 2 µM: 1.7

SMILES: CN(c1nccc(-c2ccc3ccccc3c2)n1)C1CCN(C(=O)N2CCCC2)CC1 [N-methyl-4-(2-naphthyl)-N-[1-(pyrrolidin-1-ylcarbonyl)piperidin-4-yl]pyrimidin-2-amine]
- fold induction at 2 µM: 1.81

SMILES: CN(c1nccc(-c2ccc3ccccc3c2)n1)C1CCN(C(=O)C(F)(F)F)CC1 [N-methyl-4-(2-naphthyl)-N-[1-(trifluoroacetyl)piperidin-4-yl]pyrimidin-2-amine]
- fold induction at 2 µM: 1.03
- fold induction at 20 µM: 1.06

SMILES: CN(c1nccc(-c2ccc3ccccc3c2)n1)C1CCNCC1 [N-methyl-4-(2-naphthyl)-N-piperidin-4-ylpyrimidin-2-amine]
- EC50: 1800 nM
- fold induction at 2 µM: 2.65
- fold induction at 20 µM: 1.35
- A = MAX FOLD Induction/DMSO CONTROL: 2.320 fold

SMILES: CN(c1nccc(-c2ccc3ccccc3c2)n1)C1CCN(CCOC(c2ccccc2)(c2ccccc2)c2ccccc2)CC1 [N-methyl-4-(2-naphthyl)-N-{1-[2-(trityloxy)ethyl]piperidin-4-yl}pyrimidin-2-amine]
- fold induction at 2 µM: 1.14
- fold induction at 20 µM: 1.02

SMILES: CNc1nccc(-c2ccc3ccccc3c2)n1 [N-methyl-4-(2-naphthyl)pyrimidin-2-amine]
- fold induction at 2 µM: 1.34

- A = MAX FOLD Induction/DMSO CONTROL: 2.160 fold
SMILES: CN(CC1CCN(c2nccc(-c3ccc4ccccc4c3)n2)CC1)C1CCCCC1 [N-methyl-N-({1-[4-(2-naphthyl)pyrimidin-2-yl]piperidin-4-yl}methyl)cyclohexanamine]
- fold induction at 2 µM: 2.87
- fold induction at 20 µM: 0.03

SMILES: CN(C[C@H]1CCN(c2nccc(-c3ccc4ccccc4c3)n2)C1)C1CCCCC1 [N-methyl-N-({(3R)-1-[4-(2-naphthyl)pyrimidin-2-yl]pyrrolidin-3-yl}methyl)cyclohexanamine]
- fold induction at 2 µM: 1.27
- fold induction at 20 µM: 1.6

- A = MAX FOLD Induction/DMSO CONTROL: 3.720 fold
SMILES: CN(C[C@@H]1CCN(c2nccc(-c3ccc4ccccc4c3)n2)C1)C1CCCCC1 [N-methyl-N-({(3S)-1-[4-(2-naphthyl)pyrimidin-2-yl]pyrrolidin-3-yl}methyl)cyclohexanamine]
- fold induction at 2 µM: 1.37
- fold induction at 20 µM: 2.27

SMILES: CN(c1nccc(-c2ccc3ccccc3c2)n1)C1CCN(S(C)(=O)=O)CC1 [N-methyl-N-[1-(methylsulfonyl)piperidin-4-yl]-4-(2-naphthyl)pyrimidin-2-amine]
- fold induction at 2 µM: 1.24
- fold induction at 20 µM: 0.77

SMILES: CC(=O)N(C)CCN(C)[C@@H]1CCN(c2nccc(-c3ccc4ccccc4c3)n2)C1 [N-methyl-N-[2-(methyl{(3R)-1-[4-(2-naphthyl)pyrimidin-2-yl]pyrrolidin-3-yl}amino)ethyl]acetamide]
- fold induction at 20 µM: 4.4

SMILES: CN(CCN(C)[C@@H]1CCN(c2nccc(-c3ccc4ccccc4c3)n2)C1)C(=O)c1ccccc1 [N-methyl-N-[2-(methyl{(3R)-1-[4-(2-naphthyl)pyrimidin-2-yl]pyrrolidin-3-yl}amino)ethyl]benzamide]
- fold induction at 2 µM: 1.3

SMILES: CN(CCN(C)S(=O)(=O)c1ccccc1)[C@@H]1CCN(c2nccc(-c3ccc4ccccc4c3)n2)C1 [N-methyl-N-[2-(methyl{(3R)-1-[4-(2-naphthyl)pyrimidin-2-yl]pyrrolidin-3-yl}amino)ethyl]benzenesulfonamide]
- fold induction at 20 µM: 1.4

SMILES: CCS(=O)(=O)N(C)CCN(C)[C@@H]1CCN(c2nccc(-c3ccc4ccccc4c3)n2)C1 [N-methyl-N-[2-(methyl{(3R)-1-[4-(2-naphthyl)pyrimidin-2-yl]pyrrolidin-3-yl}amino)ethyl]ethanesulfonamide]
- fold induction at 20 µM: 1.3

SMILES: CN(CCN(C)S(C)(=O)=O)[C@@H]1CCN(c2nccc(-c3ccc4ccccc4c3)n2)C1 [N-methyl-N-[2-(methyl{(3R)-1-[4-(2-naphthyl)pyrimidin-2-yl]pyrrolidin-3-yl}amino)ethyl]methanesulfonamide]
- fold induction at 20 µM: 1.9

SMILES: CCC(=O)N(C)CCN(C)[C@@H]1CCN(c2nccc(-c3ccc4ccccc4c3)n2)C1 [N-methyl-N-[2-(methyl{(3R)-1-[4-(2-naphthyl)pyrimidin-2-yl]pyrrolidin-3-yl}amino)ethyl]propanamide]
- fold induction at 20 µM: 2.5

SMILES: Cc1ccc(S(=O)(=O)N2CCC(N(C)c3nccc(-c4ccc5ccccc5c4)n3)CC2)cc1 [N-methyl-N-{1-[(4-methylphenyl)sulfonyl]piperidin-4-yl}-4-(2-naphthyl)pyrimidin-2-amine]
- fold induction at 2 µM: 1.65

- EC50: 10000 nM
- A = MAX FOLD Induction/DMSO CONTROL: 2.285 fold
SMILES: CC(=O)N(C)[C@@H]1CCN(c2nccc(-c3ccc4ccccc4c3)n2)C1 [N-methyl-N-{(3R)-1-[4-(2-naphthyl)pyrimidin-2-yl]pyrrolidin-3-yl}acetamide]
- fold induction at 2 µM: 1.55
- fold induction at 20 µM: 2.71

- EC50: 2150 nM
- A = MAX FOLD Induction/DMSO CONTROL: 2.533 fold
SMILES: CC(=O)N(C)[C@H]1CCN(c2nccc(-c3ccc4ccccc4c3)n2)C1 [N-methyl-N-{(3S)-1-[4-(2-naphthyl)pyrimidin-2-yl]pyrrolidin-3-yl}acetamide]
- fold induction at 2 µM: 2.38
- fold induction at 20 µM: 2.89

SMILES: CC(C)(C)NC(=O)[C@H]1CCCN1c1nccc(-c2ccc3ccccc3c2)n1 [N-tert-butyl-1-[4-(2-naphthyl)pyrimidin-2-yl]-D-prolinamide]
- fold induction at 2 µM: 1.16
- fold induction at 20 µM: 0.6

SMILES: CC(C)(C)NC(=O)[C@@H]1CCCN1c1nccc(-c2ccc3ccccc3c2)n1 [N-tert-butyl-1-[4-(2-naphthyl)pyrimidin-2-yl]-L-prolinamide]
- fold induction at 2 µM: 1.94
